We go through 20 compounds from patent US20250034147A1, “MDM2 DEGRADERS AND USES THEREOF” (Kymera Therapeutics, Inc., priority 2021, published 2025).

One test has as its target T1, HiBiT-tagged MDM2 (Homo sapiens, UniProt Q00987).
T1 construct: expressed in transfected cells
Nature of the test: MDM2 HiBit HEK293T degradation. The note with it: HEK293T cells stably expressing C-terminally HiBiT-tagged MDM2; 4 h; read-out: MDM2 HiBit HEK293T degradation 4 h: Average external-Abs DC50. The class given is cell-based. The method in brief: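 Degradation was measured in HEK293T cells stably expressing C-terminally HiBiT-tagged MDM2, a pool selected with 1 microgram/ml puromycin. A MDM2 tool degrader and HaloPROTAC3 served as positive controls. Potency is reported as DC50 in letter bins.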
A general note: With HiBiT, luminescence reflects the tagged protein that the partner subunit can reach.

In the next test the test system is RS411 cells. The test is described as follows: Cell Viability CTG Assay. It is filed as cell-based. The note with it: Homo sapiens, RS4-11, CellTiter Glo (CTG) cell viability, read-out: Average external-IC50. The method in brief:
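RS411 cells (1000/well) exposed 1 day at 37 °C to compound, 11-point 3-fold dilution from 10 μM top, 0.2% DMSO final. Viability read by CellTiter-Glo luminescence; IC50 reported as letter bins.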

Structures are written as SMILES.

T1 sequence (Q00987 whole entry): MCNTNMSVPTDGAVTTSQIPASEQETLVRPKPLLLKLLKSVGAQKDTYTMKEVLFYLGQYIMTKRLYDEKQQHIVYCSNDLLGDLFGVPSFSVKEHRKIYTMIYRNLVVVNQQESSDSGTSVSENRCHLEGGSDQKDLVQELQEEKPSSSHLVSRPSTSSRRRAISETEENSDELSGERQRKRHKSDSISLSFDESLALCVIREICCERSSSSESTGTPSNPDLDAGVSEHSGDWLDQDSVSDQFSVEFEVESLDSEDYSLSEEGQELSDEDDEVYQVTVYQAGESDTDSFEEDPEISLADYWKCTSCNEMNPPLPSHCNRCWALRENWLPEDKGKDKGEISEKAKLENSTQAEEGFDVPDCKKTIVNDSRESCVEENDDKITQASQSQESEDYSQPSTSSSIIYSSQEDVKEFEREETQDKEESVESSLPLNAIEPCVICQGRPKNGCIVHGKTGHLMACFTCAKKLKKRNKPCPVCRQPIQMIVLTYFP

Take `Cn1c(=O)n(C2CCC(=O)NC2=O)c2ccc(C#CC3CCN(C[C@H]4CC[C@H](NC(=O)[C@@H]5NC6(CCC(C)(C)CC6)[C@@]6(C(=O)Nc7cc(Cl)ccc76)[C@H]5c5ccnc(Cl)c5F)CC4)C(=O)C3)cc21` (stereo partly shown) [I-77]: the DC50 on HiBiT-tagged MDM2 is < 10 nM. For the same compound, the IC50 with RS411 cells is 5 to 50 nM.
The corresponding values for `Cn1c(=O)n(C2CCC(=O)NC2=O)c2ccc(CCN3CCN(CCCN4CCC(NC(=O)[C@@H]5NC6(CCCCC6)[C@@]6(C(=O)Nc7cc(Cl)ccc76)[C@H]5c5cccc(Cl)c5F)CC4)CC3)cc21` (stereo partly shown) [I-78] are < 10 nM and < 5 nM.
On the same counts, the results for `CCCc1ccc2c(c1)NC(=O)[C@]21[C@@H](c2cccc(Cl)c2F)[C@H](C(=O)N[C@H]2CC[C@H](CN3CCC(c4ccc5c(c4)n(C)c(=O)n5C4CCC(=O)NC4=O)CC3)CC2)NC12CCCCC2` (stereo partly shown) [I-79] are < 10 nM and > 500 nM.
The corresponding values for `Cn1c(=O)n(C2CCC(=O)NC2=O)c2ccc(C3CCN(S(=O)(=O)NC(=O)[C@H]4CC[C@H](NC(=O)[C@@H]5NC6(CCCCC6)[C@@]6(C(=O)Nc7cc(Cl)ccc76)[C@H]5c5cccc(Cl)c5F)CC4)CC3)cc21` (stereo partly shown) [I-80] are < 10 nM and < 5 nM.
Consider `Cc1ccc2c(c1)NC(=O)[C@]21[C@@H](c2cccc(Cl)c2F)[C@H](C(=O)N[C@H]2CC[C@H](C(=O)N3CCC(c4ccc5c(c4)n(C)c(=O)n5C4CCC(=O)NC4=O)CC3)CC2)NC12CCCCC2` (stereo partly shown) [I-81], for which the DC50 on HiBiT-tagged MDM2 is < 10 nM. Further, in the test on RS411 cells, the IC50 is < 5 nM.
Take `O=C(O)CCn1c(=O)n(C2CCC(=O)NC2=O)c2ccc(C3CCN(C(=O)[C@H]4CC[C@H](NC(=O)[C@@H]5NC6(CCCCC6)[C@@]6(C(=O)Nc7cc(Cl)ccc76)[C@H]5c5cccc(Cl)c5F)CC4)CC3)cc21` (stereo partly shown) [I-82]: the DC50 on HiBiT-tagged MDM2 was in the range of 10 to 100 nM. Also, in the test on RS411 cells, the half-inhibitory concentration (IC50) was 5 to 50 nM.
On to `Cn1c(=O)n(C2CCC(=O)NC2=O)c2ccc(C3CCN(C[C@H]4CC[C@H](NC(=O)[C@@H]5NC6(CCCCC6)[C@@]6(C(=O)Nc7cc(Cl)ccc76)[C@H]5c5cccc(Cl)c5F)CC4)C[C@H]3F)cc21` (stereo partly shown) [I-83], for which, on HiBiT-tagged MDM2, the DC50 was in the range of 10 to 100 nM. Moreover, the IC50 in the test on RS411 cells is > 500 nM.
On the same counts, the results for `Cn1c(=O)n(C2CCC(=O)NC2=O)c2ccc([C@@H]3CCN(C[C@H]4CC[C@H](NC(=O)[C@@H]5NC6(CCCCC6)[C@@]6(C(=O)Nc7cc(Cl)ccc76)[C@H]5c5cccc(Cl)c5F)CC4)C[C@@H]3F)cc21` (stereo partly shown) [I-85] are < 10 nM and 5 to 50 nM.
The corresponding values for `Cn1c(=O)n(C2CCC(=O)NC2=O)c2ccc(N3CC4(CCN(C(=O)[C@H]5CC[C@H](NC(=O)[C@@H]6NC7(CCCCC7)[C@@]7(C(=O)Nc8cc(Cl)ccc87)[C@H]6c6cccc(Cl)c6F)CC5)CC4)C3)cc21` (stereo partly shown) [I-86] are < 10 nM and < 5 nM.
On the same counts, the results for `O=C(N[C@H]1CC[C@H](CN2CCC(CCCCCC3CCN(C[C@H]4CC[C@H](NC(=O)[C@@H]5NC6(CCCCC6)[C@@]6(C(=O)Nc7cc(Cl)ccc76)[C@H]5c5cccc(Cl)c5F)CC4)CC3)CC2)CC1)[C@@H]1NC2(CCCCC2)[C@@]2(C(=O)Nc3cc(Cl)ccc32)[C@H]1c1cccc(Cl)c1F` [I-87] are > 1000 nM and > 500 nM.
`Cn1c(=O)n(C2CCC(=O)NC2=O)c2ccc(N3CC4(CN(C[C@H]5CC[C@H](NC(=O)[C@@H]6NC7(CCCCC7)[C@@]7(C(=O)Nc8cc(Cl)ccc87)[C@H]6c6cccc(Cl)c6F)CC5)C4)C3)cc21` (stereo partly shown) [I-88]: the DC50 on HiBiT-tagged MDM2 was < 10 nM. In addition, in the test on RS411 cells, the IC50 is < 5 nM.
On the same counts, the results for `CN(CCc1ccc2c(c1)n(C)c(=O)n2C1CCC(=O)NC1=O)CCN(C)C(=O)[C@H]1CC[C@H](NC(=O)[C@@H]2NC3(CCCCC3)[C@@]3(C(=O)Nc4cc(Cl)ccc43)[C@H]2c2cccc(Cl)c2F)CC1` (stereo partly shown) [I-89] are < 10 nM and 5 to 50 nM.
On the same counts, the results for `CN1C(C(=O)N[C@H]2CC[C@H](C(=O)N3CCC4(CC3)CN(c3ccc5c(c3)n(C)c(=O)n5C3CCC(=O)NC3=O)C4)CC2)[C@H](c2cccc(Cl)c2F)[C@]2(C(=O)Nc3cc(Cl)ccc32)C12CCCCC2` (stereo partly shown) [I-91] are < 10 nM and 5 to 50 nM.
On the same counts, the results for `COc1cc2c(cc1OC(C)C)[C@H](c1ccc(Cl)cc1)N(c1ccc(N(C)C[C@H]3CC[C@H](N(CC(=O)O)C(=O)CCCCc4ccc5c(c4)n(C)c(=O)n5C4CCC(=O)NC4=O)CC3)cc1)C(=O)C2` (stereo partly shown) [I-93] are 100 to 1000 nM and > 500 nM.
With `Cn1c(=O)n(C2CCC(=O)NC2=O)c2ccc(C3CCN(C[C@H]4CC[C@H](NC(=O)[C@@H]5NC6(CCCCC6)[C@@]6(C(=O)Nc7cc(CC8CC8)ccc76)[C@H]5c5cccc(Cl)c5F)CC4)CC3)cc21` (stereo partly shown) [I-94], the DC50 on HiBiT-tagged MDM2 was > 1000 nM. In the test with RS411 cells, the IC50 is > 500 nM.
`CCOc1ccc2c(c1)NC(=O)[C@]21[C@@H](c2cccc(Cl)c2F)[C@H](C(=O)N[C@H]2CC[C@H](CN3CCC(c4ccc5c(c4)n(C)c(=O)n5C4CCC(=O)NC4=O)CC3)CC2)NC12CCCCC2` (stereo partly shown) [I-95]: the DC50 on HiBiT-tagged MDM2 lay in the range of 100 to 1000 nM. Besides, in the test on RS411 cells, the IC50 is > 500 nM.
The corresponding values for `CCOc1ccc2c(c1)NC(=O)C21[C@@H](c2cccc(Cl)c2F)[C@H](C(=O)N[C@H]2CC[C@H](C(=O)C3CCN(CCCc4ccc5c(c4)n(C)c(=O)n5C4CCC(=O)NC4=O)CC3)CC2)NC12CCCCC2` (stereo partly shown) [I-96] are < 10 nM and > 500 nM.
Consider `Cn1c(=O)n(C2CCC(=O)NC2=O)c2ccc(CCN3CCC(NC(=O)[C@@H]4NC5(CCCCC5)[C@@]5(C(=O)Nc6cc(Cl)ccc65)[C@H]4c4cccc(Cl)c4F)CC3)cc21` (stereo partly shown) [I-97], for which, at HiBiT-tagged MDM2, the DC50 is < 10 nM. Besides, the IC50 in the test with RS411 cells was 5 to 50 nM.
As for `Cn1c(=O)n(C2CCC(=O)NC2=O)c2ccc(CN3CCC(NC(=O)[C@@H]4NC5(CCCCC5)[C@@]5(C(=O)Nc6cc(Cl)ccc65)[C@H]4c4cccc(Cl)c4F)CC3)cc21` (stereo partly shown) [I-98], the DC50 at HiBiT-tagged MDM2 was 100 to 1000 nM. Further, the half-maximal inhibitory concentration (IC50) in the test with RS411 cells is 5 to 50 nM.
The corresponding values for `O=C(O)Cn1c(=O)n(C2CCC(=O)NC2=O)c2ccc(C3CCN(C(=O)[C@H]4CC[C@H](NC(=O)[C@@H]5NC6(CCCCC6)[C@@]6(C(=O)Nc7cc(Cl)ccc76)[C@H]5c5cccc(Cl)c5F)CC4)CC3)cc21` (stereo partly shown) [I-99] are 100 to 1000 nM and 5 to 50 nM.

In general, DC50 refers to the midpoint of the concentration-degradation curve. The term IC50 denotes the concentration at which inhibition is half-maximal.
